Laboratory results reported in patent publication US20170174734A1, “DR6 Receptor Mediates the Leukemia Differentiation Activity of Angiocidin: A Potent Anti-Tumor Peptide” (Temple University-Of The Commonwealth System of Higher …, priority 2014, published 2017).
Blank lines part the entries; values can stand above or below the molecule they belong to.

Columns and labels:
[1] = biological target: T1, DR6 extracellular domain-FC chimera (Homo sapiens, UniProt O75509); assay: ELISA binding of biotinylated angiocidin to plate-coated DR6 extracellular-Fc chimeric recombinant protein; conditions: for Blocking of binding of biotinylated angiocidin to DR6: 1 μg/ml biotinylated angiocidin, 50 μg/ml 5 mer, 10 μg/ml anti-DR6 IgG or 50 μg/ml unlabeled angiocidin
T1 construct: wells of a microtiter plate were coated with 100 ng of a DR6 extracellular-Fc chimeric recombinant protein overnight
T1 sequence (O75509 42-349 limits assumed): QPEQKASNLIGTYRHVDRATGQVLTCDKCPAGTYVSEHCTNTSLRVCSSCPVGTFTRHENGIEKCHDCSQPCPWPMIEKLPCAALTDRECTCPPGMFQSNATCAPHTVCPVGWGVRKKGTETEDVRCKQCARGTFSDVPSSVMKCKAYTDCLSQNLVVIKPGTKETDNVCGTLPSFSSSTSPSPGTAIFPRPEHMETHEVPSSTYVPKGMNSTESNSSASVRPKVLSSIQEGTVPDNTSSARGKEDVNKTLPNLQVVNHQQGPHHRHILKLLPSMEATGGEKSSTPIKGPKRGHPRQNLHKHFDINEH
Protocol: (§1) The next experiment was performed to characterize the binding of DR6 with angiocidin. Briefly, wells of a microtiter plate were coated with 100 ng of a DR6 extracellular-Fc chimeric recombinant protein overnight. Wells were then washed in PBS and blocked with 1% BSA. Blocked wells were incubated with shaking with 200 μl of PBS containing various concentrations of biotinylated angiocidin for one hour. Wells were than washed and incubated with shaking with a 1:10,000 dilution of a 1 mg/ml solution of streptavidin-HRP in PBS. Wells were washed 3 times in PBS and bound streptavidin HRP was detected by incubation of the wells with 100 μl of 3,3′,5,5′-tetramethylbenzidine (TMB) with shaking for 5 min. Reactions were stopped by the addition of 50 μl of 1 M HCl and the color read in an ELISA reader at 450 nm.
(§2) The next experiment was performed to further characterize the binding between DR6 and angiocidin. It was observed that the binding of angiocidin to DR6 was blocked with anti-DR6 IgG, 5 mer peptide, and unlabeled angiocidin. Wells contained either 1 μg/ml of biotinylated angiocidin alone or 50 μg/ml 5 mer, 10 μg/ml of anti-DR6 IgG or 50 μg/ml unlabeled angiocidin.

THP-1 cells [2] = assay: Differentiation marker expression (CD14, CD54, CD36) in THP-1 cells, flow cytometry; assay type: cell-based; conditions: for Leukemia cell differentiating activity, comparison of 5 mer, 20 mer and angiocidin / Upregulation of CD54 in THP-1 leukemia cells: FIGS. 8-11; for Upregulation of CD54 in THP-1 cells: after 24 hours incubation, FIG. 8
Protocol: FIG. 10 is an image showing the comparison between angiocidin, the 5 mer, and a 20 mer (F86-H105) […]; SEQ ID NO: 2 on the expression of CD14 and CD54. Briefly, THP-1 cells were grown in the presence of various concentrations of peptide overnight and then the cells were assayed by flow cytometry for expression of CD14 and CD54.
FIG. 11 is an image showing the comparison between the 20 mer, 5 mer and angiocidin on the expression of CD14 and CD54 up-regulation in THP-1 cells and two primary leukemia cells. Cells were treated with peptide at 10 ug/ml for 12 hours and CD14 and CD54 were measured by flow cytometry.
THP-1 cells were cultured in RPMI media for 24 hours containing no peptides or angiocidin or 2, 10 μg/ml of either angiocidin, 5 mer, peptide or a control peptide, r5 mer having the reverse sequence of the 5 mer. Marker expression was measured by flow cytometry.

[3] = system: three different leukemia cell lines; assay: Cytokine upregulation in three leukemia cell lines; assay type: cell-based
Protocol: Experiments were also performed comparing the leukemia cell differentiating activity of the 5 mer, the 20 mer and angiocidin.

THP-1 cells [4] = assay: Binding of Alexa Fluor 488 labeled angiocidin to THP-1 cells, flow cytometry
Protocol: Experiments were performed to evaluate the interaction between DR-6 and angiocidin. […] Briefly, THP-1 cells were plated in 6 well dishes in serum-free media. Cells were untreated or treated for 30 min at 37° with either 2.5 μg/ml of Angiocidin labeled with Alexa Fluor 488 (Angio-488), Angio-448+10 μg/ml control rabbit IgG, Angio-488+10 μg/ml rabbit Anti-DR6 IgG, Angio-488+10 μg/ml unlabeled Angiocidin. Cells were washed twice in PBS and the percent positive Angio-488 measured by flow cytometry.

[5] = biological target: T2, DR6 in whole extracts of THP-1 cells (Homo sapiens, UniProt O75509); assay: Blot overlay of biotinylated angiocidin on SDS extracts of THP-1 cells; assay type: binding; conditions: 0.1 mg/ml biotinylated angiocidin, one hour
T2 construct: SDS detergent extracts of THP-1 cells were separated on SDS-PAGE and blotted onto PVD membranes; endogenous in cells; host or cells: THP-1 cells
T2 sequence (O75509 42-655): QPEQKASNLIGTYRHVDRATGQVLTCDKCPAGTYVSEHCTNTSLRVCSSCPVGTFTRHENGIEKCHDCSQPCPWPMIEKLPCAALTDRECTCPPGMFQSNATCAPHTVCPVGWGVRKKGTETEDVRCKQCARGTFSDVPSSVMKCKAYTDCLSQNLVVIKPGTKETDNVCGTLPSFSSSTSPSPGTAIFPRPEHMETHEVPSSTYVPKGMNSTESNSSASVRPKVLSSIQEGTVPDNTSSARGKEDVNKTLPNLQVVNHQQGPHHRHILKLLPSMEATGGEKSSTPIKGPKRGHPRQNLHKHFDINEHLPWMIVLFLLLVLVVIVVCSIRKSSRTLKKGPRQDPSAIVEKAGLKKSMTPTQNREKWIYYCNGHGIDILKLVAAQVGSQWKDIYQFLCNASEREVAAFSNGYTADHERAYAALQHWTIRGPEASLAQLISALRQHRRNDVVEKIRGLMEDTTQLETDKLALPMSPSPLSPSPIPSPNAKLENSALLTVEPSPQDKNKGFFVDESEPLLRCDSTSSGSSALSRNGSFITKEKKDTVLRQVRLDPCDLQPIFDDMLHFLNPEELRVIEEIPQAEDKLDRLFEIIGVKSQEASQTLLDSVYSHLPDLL
Protocol: Briefly, SDS detergent extracts of THP-1 cells were separated on SDS-PAGE and blotted onto PVD membranes. Membranes were washed in tris-buffered saline containing 0.1% Tween 20 detergent (TBS-T) and 1% BSA and incubated with 0.1 mg/ml of biotinylated angiocidin in the presence or absence of 10 μg/ml rabbit Anti-DR6 antibody. After incubation for one hour membranes were washed in TBS-T and incubated with 1:10,000 dilution of a 1 mg/ml solution of streptavidin HRP in PBS for 30 min. Membranes were then washed, treated with a chemiluminescent substrate for HRP and developed for chemiluminescence using X-ray film. In the panel on the right, recombinant DR6-Fc was used as the positive control.

death receptor-6 (DR6) = biological target: T3, death receptor-6 (DR6) (Homo sapiens, UniProt O75509); assay: Binding strength of DR6 for angiocidin compared with previously reported binding proteins
T3 sequence (O75509 42-655): T2 sequence (O75509 42-655)

THP-I leukemia cells = assay: Blocking DR6 on THP-I leukemia cells: effect on the differentiating activity of angiocidin; assay type: cell-based; conditions: mediated by DR6
Text: Additionally, the DR6 binding domain of angiocidin is located in a 5 amino acid sequence (ALKHR; SEQ ID NO: 1) present near the N-terminal domain of angiocidin. Accordingly, the 5 mer (ALKHR; SEQ ID NO: 1) is a potentially non-toxic alternative treatment of AML

[6] = biological target: T4, DR6 extracellular-Fc chimeric recombinant protein (UniProt O75509 42-349, limits assumed); assay: not stated (opening statement of Example 1)
T4 construct: extracellular domain; also called DR6 extracellular domain-FC chimera; DR6-Fc; not shown: Fc part
T4 sequence (looked up): T1 sequence (O75509 42-349 limits assumed)

[7] = biological target: T4, DR6 extracellular-Fc chimeric …; assay: competition ELISA on coated DR6 extracellular domain-Fc, 50 ug/ml 5 mer against 1 ug/ml biotinylated angiocidin
Protocol: as §1, with “nm. It was observed that angiocidin binds the extracellular domain of DR6 (DR6 extracellular domain-FC chimera) in vitro (FIG. 2).” for “nm.”
as §2

THP-1 cells [8] = assay: Angiocidin-mediated up-regulation of CD14 in THP-1 cells, flow cytometry; assay type: cell-based; conditions: 2.5 μg/ml Angiocidin plus 10 μg/ml rabbit anti-DR6 IgG or 0.10 μg/ml DR6-Fc, 24 hours, 1% fetal calf serum
Protocol: THP-1 cells were grown for 24 hours in RPMI containing 1% fetal calf serum (NT) or containing the following: 2.5 μg/ml Angiocidin, 0.10 μg/ml DR6-Fc, 2.5 μg/ml Angiocidin plus 0.10 μg/ml, DR6-Fc, 10 μg/ml rabbit IgG, 2.5 μg/ml Angiocidin plus 10 μg/ml rabbit IgG, 10 μg/ml rabbit anti-DR6 IgG, 2.5 μg/ml Angiocidin plus 10 μg/ml rabbit anti-DR6 IgG. Percent CD14 positive cells were measured by flow cytometry.

Molecule: ALKHR [5 mer]
Blocking of binding of biotinylated angiocidin to DR6 [1]: blocked | Leukemia cell differentiating activity, comparison of 5 mer, 20 mer and angiocidin (THP-1 cells [2]): nearly identical leukemia cell differentiating activities | Upregulation of CD54 in THP-1 leukemia cells (THP-1 cells [2]): upregulate CD54 | Differentiation activity measured by upregulation of CD14, CD54, CD36 (THP-1 cells [2]; THP-1 cells, RPMI, 24 hours, 2, 10 μg/ml): mimics the differentiation activity of angiocidin | Upregulation of CD54 in THP-1 cells (THP-1 cells [2]): upregulate CD54 | Upregulation of cytokine panel [3]: upregulate a similar panel of cytokines

Molecule: Angio-488: Angiocidin labeled with Alexa Fluor 488 [reference compound]
Affinity for cell bound DR6 after labeling with Alexa Fluor 488 (THP-1 cells [4]; inferred from competition by unlabeled angiocidin): did not alter its affinity for cell bound DR6

Molecule: FCTGIRVAHLALKHRQGKNH [20 mer, 20 mer peptide of the anti-tumor domain of angiocidin]
Leukemia cell differentiating activity, comparison of 5 mer, 20 mer and angiocidin (THP-1 cells [2]): nearly identical leukemia cell differentiating activities | Upregulation of CD54 in THP-1 leukemia cells (THP-1 cells [2]): upregulate CD54 | Upregulation of cytokine panel [3]: upregulate a similar panel of cytokines

B1: Angiocidin (ligand, UniProt P55036 1-377, looked up)
chain: MVLESTMVCVDNSEYMRNGDFLPTRLQAQQDAVNIVCHSKTRSNPENNVGLITLANDCEVLTTLTPDTGRILSKLHTVQPKGKITFCTGIRVAHLALKHRQGKNHKMRIIAFVGSPVEDNEKDLVKLAKRLKKEKVNVDIINFGEEEVNTEKLTAFVNTLNGKDGTGSHLVTVPPGPSLADALISSPILAGEGGAMLGLGASDFEFGVDPSADPELALALRVSMEEQRQRQEEEARRAAAASAAEAGIATTGTEDSDDALLKMTISQQEFGRTGLPDLSSMTEEEQIAYAMQMSLQGAEFGQAESADIDASSAMDTSEPAKEEDDYDVMQDPEFLQSVLENLPGVDPNNEAIRNAMGSLASQATKDGKKDKKEEDKK
modifications: Alexa Fluor 488 label (flow cytometry) or biotin label (ELISA, blot); sites not stated; also used unlabeled as competitor
notes: Labelled and unlabelled preparations are kept as one molecule
fold stronger binding than the other binding proteins and peptides previously reported for angiocidin [6]: > 100 times

B3: DR6-Fc: DR6 extracellular-Fc chimeric recombinant protein (protein)
chain: T1 sequence (O75509 42-349 limits assumed)
modifications: left off: a dimerising Fc or GST
notes: DR6 extracellular-Fc chimeric recombinant protein
Inhibition of angiocidin-mediated upregulation of CD14 (percent CD14 positive cells) (THP-1 cells [8]): inhibit the angiocidin-mediated upregulation of CD14

The next lines start with results.

Binding of biotinylated angiocidin to the extracellular domain of DR6 ([1]; 100 ng DR6-Fc coated, various concentrations, one hour, read at 450 nm): binds the extracellular domain of DR6 | Blocking of binding of biotinylated angiocidin to DR6 [1]: blocked
Molecule: angiocidin: protein originally isolated from lung carcinoma, receptor for thrombospondin-1, inhibitor of angiogenesis and tumor cell proliferation
Inhibition of binding of Angio-488 to THP-1 cells (percent positive Angio-488) (THP-1 cells [4]; 2.5 μg/ml Angio-488 plus 10 μg/ml competitor, 30 min at 37°, serum-free media): competed with the binding of Angio-488 | Binding of angiocidin to DR6 in whole extracts of THP-1 cells [5]: binds to DR6 in whole extracts of THP-1 cells | Leukemia cell differentiating activity, comparison of 5 mer, 20 mer and angiocidin (THP-1 cells [2]): nearly identical leukemia cell differentiating activities | Upregulation of CD54 in THP-1 leukemia cells (THP-1 cells [2]): upregulate CD54 | Upregulation of CD54 in THP-1 cells (THP-1 cells [2]): upregulate CD54 | Upregulation of cytokine panel [3]: upregulate a similar panel of cytokines | Binding strength of DR6 for angiocidin relative to other reported binding proteins and peptides (death receptor-6 (DR6)): more than 100 times | Differentiating activity on THP-I leukemia cells (THP-I leukemia cells): transforms THP-I leukemia cells into normal macrophage-like cells

binding result [7]: binds
B2: 5 mer (ALKHR peptide) (peptide)
peptide: ALKHR
notes: Five-residue peptide from angiocidin; also called Angio-pep; 5 mer peptide
